From ChEMBL document CHEMBL5543153, “Discovery of a Potent Dual Son of Sevenless 1 (SOS1) and Epidermal Growth Factor Receptor (EGFR) Inhibitor for the Treatment of Prostate Cancer” (J Med Chem, 2024)
The source made the active and inactive calls. No cut-off for these calls is given here.

How the values were obtained:
[1] = target: T1, Son of sevenless homolog 1 (Homo sapiens) (UniProt Q07889); assay: Inhibition of SOS1 in human PC-3 cells assessed as downregulation of AKT phosphorylation at 12.5 uM incubated for 15 mins by Western blotting analysis; type: cell-based
T1 sequence (whole entry): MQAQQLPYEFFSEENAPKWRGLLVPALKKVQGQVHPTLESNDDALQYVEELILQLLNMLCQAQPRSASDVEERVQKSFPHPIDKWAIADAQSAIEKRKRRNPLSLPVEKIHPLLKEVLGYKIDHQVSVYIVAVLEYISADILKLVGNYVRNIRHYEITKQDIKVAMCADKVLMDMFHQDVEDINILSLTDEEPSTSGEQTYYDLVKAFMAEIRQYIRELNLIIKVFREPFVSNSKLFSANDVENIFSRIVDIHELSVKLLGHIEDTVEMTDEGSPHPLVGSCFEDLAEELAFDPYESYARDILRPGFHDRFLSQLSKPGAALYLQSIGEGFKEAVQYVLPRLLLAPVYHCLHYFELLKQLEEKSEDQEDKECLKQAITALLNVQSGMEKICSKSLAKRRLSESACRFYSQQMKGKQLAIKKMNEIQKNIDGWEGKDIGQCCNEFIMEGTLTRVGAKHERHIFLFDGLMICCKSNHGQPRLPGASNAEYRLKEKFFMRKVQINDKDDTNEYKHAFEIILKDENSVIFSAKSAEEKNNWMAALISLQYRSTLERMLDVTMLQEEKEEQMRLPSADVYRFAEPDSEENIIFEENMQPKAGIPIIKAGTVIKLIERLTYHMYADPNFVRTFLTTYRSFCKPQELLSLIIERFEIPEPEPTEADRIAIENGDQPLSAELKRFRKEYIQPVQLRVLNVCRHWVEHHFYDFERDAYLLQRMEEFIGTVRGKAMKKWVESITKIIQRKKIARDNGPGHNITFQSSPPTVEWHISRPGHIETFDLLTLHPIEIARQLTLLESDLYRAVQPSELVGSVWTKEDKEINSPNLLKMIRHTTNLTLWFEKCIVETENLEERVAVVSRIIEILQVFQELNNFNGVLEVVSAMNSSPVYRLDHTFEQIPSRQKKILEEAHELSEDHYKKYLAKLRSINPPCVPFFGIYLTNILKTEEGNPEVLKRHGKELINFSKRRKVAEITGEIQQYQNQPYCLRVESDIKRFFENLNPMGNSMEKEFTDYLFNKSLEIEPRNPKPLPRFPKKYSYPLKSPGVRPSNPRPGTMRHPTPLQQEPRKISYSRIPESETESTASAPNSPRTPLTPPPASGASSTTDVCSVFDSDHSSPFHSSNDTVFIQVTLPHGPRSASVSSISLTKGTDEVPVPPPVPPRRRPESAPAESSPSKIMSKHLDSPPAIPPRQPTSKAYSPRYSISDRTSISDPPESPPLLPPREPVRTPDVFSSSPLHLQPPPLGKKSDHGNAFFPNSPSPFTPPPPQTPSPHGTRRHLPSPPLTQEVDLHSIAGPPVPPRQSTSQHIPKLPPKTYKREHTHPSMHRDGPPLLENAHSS

PC-3 [2] = assay: Induction of cell cycle arrest in human PC-3 cells assessed as accumulation of cells at G2 phase at 2.5 uM by PI staining based flow cytometry (reference value: 7.75%); type: functional
PC-3 [3] = assay: Induction of cell cycle arrest in human PC-3 cells assessed as accumulation of cells at G2 phase at 12.5 uM by PI staining based flow cytometry (reference value: 7.75%); type: functional
HUVEC = assay: Inhibition of cell migration in HUVEC cells assessed as reduction in migration index measured after 48 hrs by wound healing assay; type: functional, cell-based; conditions: Homo sapiens
PC-3 [4] = assay: Antitumor activity against human PC-3 cells xenografted in BALB/c mouse assessed as reduction in tumor volume at 20 mg/kg,ip administrated once every 4 days for 24 days; type: functional, organism-based; conditions: time 24.0 day
[5] = Toxicity in BALB/c mouse xenografted with human PC-3 cells assessed as heart pathological change at 5 mg/kg,ip administrated once every 4 days for 24 days by hematoxylin and eosin staining based analysis; type: organism-based; conditions: in vivo, 576 h, time 24 day
[6] = Toxicity in BALB/c mouse xenografted with human PC-3 cells assessed as change in AST level at 20 mg/kg,ip administrated once every 4 days for 24 days by automatic biochemical analyzer; type: organism-based; conditions: in vivo, 576 h, time 24 day

## COc1cc2ncnc(N[C@H](C)c3cccc(F)c3)c2cc1OC1CCOCC1
[1]
  inhibition: Active
PC-3 [2]
  Activity: 12.65%
PC-3 [3]
  Activity: 5.95%
HUVEC
  inhibition: Dose-Dependent Effect
PC-3 [4]
  Activity: Active
[5]
  Activity: Toxic
[6]
  Activity: Non-Toxic
